Consider 13 molecules from ChEMBL document CHEMBL1201862, “PubChem BioAssay data set” (2004).

By AC50 is commonly meant the midpoint of the concentration-response curve, whichever way the signal moves. For orientation: Ki means the dissociation constant of the complex between target and ligand, obtained from inhibition or displacement. As usually defined, the EC50 is the midpoint of the concentration-response curve.

Activity calls are given as the source filed them.

The nature of experiment [1]: inhibition of ARNT PAS-B/TACC3 complex formation – biochemical, AlphaScreen, cherry-picked samples, confirmation (AID 651703).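 Also: His-tagged ARNT PAS-B domain paired with GST-TACC3 E629A dimer coactivator fragment; potency of inhibitors that break up the complex and lower AlphaScreen signal.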 The format is functional, Homo sapiens. (Alpha assays give light when donor and acceptor beads are brought close together.)
For another experiment, the target named is Cytochrome P450 2C19 (Homo sapiens, UniProt P33261). The experiment is described as follows: Cytochrome panel assay with activity outcomes. Panel member name: p450-cyp2c19 Compounds with AC50 equal or less than 10 uM are considered active. The format is functional. Conditions: read-out: AC50.
Another experiment has as its target Cytochrome P450 2C9 (Homo sapiens, UniProt P11712).
Experiment [2] addresses T1, Neuropeptides B/W receptor type 1 (Homo sapiens, UniProt P48145).
T1 sequence (P48145 whole entry): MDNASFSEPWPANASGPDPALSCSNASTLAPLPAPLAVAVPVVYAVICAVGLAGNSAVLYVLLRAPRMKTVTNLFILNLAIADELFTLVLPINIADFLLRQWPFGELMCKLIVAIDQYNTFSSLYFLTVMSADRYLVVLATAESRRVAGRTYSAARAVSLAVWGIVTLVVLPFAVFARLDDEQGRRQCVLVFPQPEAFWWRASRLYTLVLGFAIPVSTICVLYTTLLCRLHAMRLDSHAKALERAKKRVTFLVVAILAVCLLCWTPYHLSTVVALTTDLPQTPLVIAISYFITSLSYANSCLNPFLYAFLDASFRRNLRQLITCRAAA
The experiment is described as follows: human NPBW1 receptor blockade, IC50 – cell-based, fluorescence, dose response, set 6, late-stage follow-up (AID 588583). The class given is functional.

Experiment [3] addresses Melanin-concentrating hormone receptor 1 (Homo sapiens, UniProt Q99705). The experiment is described as follows: Late-stage fluorescence-based counterscreen for antagonists of the G-protein coupled receptor 7 (GPR7): cell-based dose response assay to identify antagonists of the melanin-concentrating hormone receptor 1 (MCHR1) Set 6. The class given is functional. In general terms: Counterscreens check selectivity or assay interference.

Experiment [4] has as its target Aryl hydrocarbon receptor (Homo sapiens, UniProt P35869). The following applies: Potency.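 Also: confirmatory quantitative high-throughput screen measuring activation of the AhR signaling pathway.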
A further experiment has as its target Aurora kinase B (Homo sapiens, UniProt Q96GD4). The format is functional.
Another experiment deals with Aurora kinase A (Homo sapiens, UniProt O14965). The format is functional.
Chain of Aurora kinase A (O14965 whole entry): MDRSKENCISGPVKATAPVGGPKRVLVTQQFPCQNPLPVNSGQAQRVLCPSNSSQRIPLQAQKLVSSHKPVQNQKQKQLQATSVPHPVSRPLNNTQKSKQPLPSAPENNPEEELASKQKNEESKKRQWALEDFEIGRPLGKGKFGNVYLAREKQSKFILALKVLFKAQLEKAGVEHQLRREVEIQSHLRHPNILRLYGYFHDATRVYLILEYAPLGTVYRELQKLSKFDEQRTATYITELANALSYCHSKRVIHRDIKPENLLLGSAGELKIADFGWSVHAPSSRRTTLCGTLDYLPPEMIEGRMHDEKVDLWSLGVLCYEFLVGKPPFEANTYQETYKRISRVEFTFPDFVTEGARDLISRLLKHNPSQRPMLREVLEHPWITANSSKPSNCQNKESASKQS
The target in experiment [5] is T2, Melanocortin receptor 4 (Homo sapiens, UniProt P32245). The experiment is described as follows: inhibitors of MC4R cAMP signaling – cell-based, TR-FRET, biased antagonists, dose response (AID 602298).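 Also: antagonist potency against agonist-stimulated cAMP production.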 The class given is functional. In general terms: TR-FRET usually uses a lanthanide donor and a delayed reading to cut background.
T2 sequence (P32245 whole entry): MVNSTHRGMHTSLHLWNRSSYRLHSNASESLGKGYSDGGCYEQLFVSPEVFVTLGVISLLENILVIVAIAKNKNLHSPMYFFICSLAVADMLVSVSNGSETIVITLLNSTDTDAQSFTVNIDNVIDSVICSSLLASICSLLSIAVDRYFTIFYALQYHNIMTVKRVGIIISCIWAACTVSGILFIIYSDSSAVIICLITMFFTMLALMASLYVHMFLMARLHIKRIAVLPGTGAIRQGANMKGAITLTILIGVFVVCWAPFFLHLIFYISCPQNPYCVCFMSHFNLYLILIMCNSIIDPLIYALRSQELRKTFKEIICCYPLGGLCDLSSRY
Experiment [6] in a line: cAMP pathway inhibition in counterscreen cell line – TR-FRET cAMP detection, counter-screen for MC4R biased antagonist project, dose response (AID 602305).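 Also: U2OS cells stimulated with forskolin near its EC80 as the cAMP inducer; potency is for inhibition of forskolin-stimulated cAMP signaling.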 The format is functional, cell-based.
Experiment [7] deals with Mitochondrial peptide methionine sulfoxide reductase (Bos taurus, UniProt P54149). Nature of the experiment: Absorbance-based biochemical high throughput dose response assay for activators of Methionine sulfoxide reductase A (MsrA). The format is functional.
Chain of Mitochondrial peptide methionine sulfoxide reductase (P54149 whole entry): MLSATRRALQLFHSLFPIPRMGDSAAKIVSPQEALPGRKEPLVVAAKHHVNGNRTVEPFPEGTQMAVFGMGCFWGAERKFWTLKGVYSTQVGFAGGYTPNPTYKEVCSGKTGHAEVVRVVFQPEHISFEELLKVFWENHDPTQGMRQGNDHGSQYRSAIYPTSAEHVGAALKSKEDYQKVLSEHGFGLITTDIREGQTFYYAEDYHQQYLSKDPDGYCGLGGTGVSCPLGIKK
Experiment [8] deals with T3, Mannose-6-phosphate isomerase (Homo sapiens, UniProt P34949).
T3 sequence (P34949 whole entry): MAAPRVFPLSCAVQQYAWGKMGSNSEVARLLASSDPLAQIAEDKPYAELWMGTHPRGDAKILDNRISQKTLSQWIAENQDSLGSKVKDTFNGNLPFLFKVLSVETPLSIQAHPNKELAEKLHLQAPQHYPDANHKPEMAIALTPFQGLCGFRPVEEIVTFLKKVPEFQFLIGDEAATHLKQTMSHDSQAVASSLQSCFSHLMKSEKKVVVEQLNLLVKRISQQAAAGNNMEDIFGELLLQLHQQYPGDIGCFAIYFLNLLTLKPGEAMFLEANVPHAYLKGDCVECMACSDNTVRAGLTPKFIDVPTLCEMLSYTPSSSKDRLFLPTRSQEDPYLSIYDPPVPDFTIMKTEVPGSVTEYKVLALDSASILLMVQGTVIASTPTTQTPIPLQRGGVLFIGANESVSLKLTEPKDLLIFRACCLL
The experiment is described as follows: MPI inhibition at elevated mannose 6-phosphate – biochemical, fluorescence intensity, high mannose 6-phosphate, primary screen (AID 1220).

Experiment [9] is described as follows: NIH3T3 cell viability loss – ATP luminescence, mouse fibroblasts, counter-screen, dose response (AID 2010).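 Also: cells exposed to compound for about 90 hours before reading.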 The class given is functional, cell-based.
Experiment [10] is described as follows: Trypanosoma cruzi growth suppression in host cells – NIH3T3 host cells, beta-gal luminescence, confirmation (AID 2044).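 Also: intracellular parasites grown in NIH/3T3 mouse fibroblasts as host cells; luminescent beta-galactosidase reporter signal from transgenic T. cruzi replicating inside host cells; inhibitors lower the luminescence signal.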 The format is functional, cell-based.
Experiment [11] concerns the target Heat shock protein HSP 90-alpha (Homo sapiens, UniProt P07900). The format is functional, organism-based.
Experiment [12] deals with Proto-oncogene tyrosine-protein kinase receptor Ret (Homo sapiens, UniProt P07949). The class given is functional.
Experiment [13] deals with DNA dC->dU-editing enzyme APOBEC-3A (Homo sapiens, UniProt P31941). Nature of the experiment: SAR analysis of small molecule inhibitors of APOBEC3A DNA Deaminase via a fluorescence-based single-stranded DNA deaminase assay. The class given is functional. Conditions: read-out: IC50_Mean.
Chain of DNA dC->dU-editing enzyme APOBEC-3A (P31941 whole entry): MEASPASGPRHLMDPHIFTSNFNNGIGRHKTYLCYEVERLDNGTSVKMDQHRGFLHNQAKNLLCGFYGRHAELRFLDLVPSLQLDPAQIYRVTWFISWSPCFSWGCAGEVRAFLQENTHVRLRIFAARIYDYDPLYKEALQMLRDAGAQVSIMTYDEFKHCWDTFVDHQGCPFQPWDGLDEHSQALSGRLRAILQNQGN
Experiment [14] addresses DNA dC->dU-editing enzyme APOBEC-3G (Homo sapiens, UniProt Q9HC16). The experiment is described as follows: inhibition of APOBEC3G ssDNA deamination – biochemical, fluorescence, single-stranded DNA substrate, SAR follow-up (AID 602136). The format is functional. The following applies: read-out: IC50_Mean.
Experiment [15] has as its target T2, Melanocortin receptor 4. The format is functional, cell-based.
Experiment [16] concerns the target T4, Low molecular weight phosphotyrosine protein phosphatase (Homo sapiens, UniProt P24666).
T4 sequence (P24666 whole entry): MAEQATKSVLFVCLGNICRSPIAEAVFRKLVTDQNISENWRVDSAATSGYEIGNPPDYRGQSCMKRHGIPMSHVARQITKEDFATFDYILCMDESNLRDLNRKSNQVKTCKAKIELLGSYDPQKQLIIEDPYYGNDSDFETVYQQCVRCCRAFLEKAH
The class given is functional. Conditions: read-out: IC50_Mean.

For a further experiment, the target named is Cytochrome P450 2D6 (Homo sapiens, UniProt P10635).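 Also: CYP2D6 member of a cytochrome P450 panel assay.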
The target of experiment [17] is T4, Low molecular weight phosphotyrosine protein phosphatase. The format is functional. Conditions: read-out: IC50_Mean. This is another data set of the same source.
The target of the next experiment is Cytochrome P450 3A4 (Homo sapiens, UniProt P08684).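 Also: CYP3A4 tested as one member of a cytochrome P450 panel screen.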
Chain of Cytochrome P450 3A4 (P08684 whole entry): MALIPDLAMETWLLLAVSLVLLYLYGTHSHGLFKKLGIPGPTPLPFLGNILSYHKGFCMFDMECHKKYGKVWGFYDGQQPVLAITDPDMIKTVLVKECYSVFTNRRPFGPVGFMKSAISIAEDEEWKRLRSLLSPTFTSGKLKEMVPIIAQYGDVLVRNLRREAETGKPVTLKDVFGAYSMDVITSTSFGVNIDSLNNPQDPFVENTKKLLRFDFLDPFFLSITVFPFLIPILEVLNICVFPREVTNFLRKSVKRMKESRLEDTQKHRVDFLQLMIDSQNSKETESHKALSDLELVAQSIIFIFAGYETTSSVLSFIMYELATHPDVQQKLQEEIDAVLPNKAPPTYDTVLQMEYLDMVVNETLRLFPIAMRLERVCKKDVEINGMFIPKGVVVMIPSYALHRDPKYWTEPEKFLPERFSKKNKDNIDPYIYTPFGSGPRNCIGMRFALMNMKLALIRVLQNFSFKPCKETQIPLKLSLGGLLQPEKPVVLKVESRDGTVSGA
Experiment [18] deals with Ras and Rab interactor 1/Tyrosine-protein kinase ABL1 (Homo sapiens, UniProt P00519+Q13671). The format is functional.
Chain of Ras and Rab interactor 1/Tyrosine-protein kinase ABL1 (P00519 whole entry): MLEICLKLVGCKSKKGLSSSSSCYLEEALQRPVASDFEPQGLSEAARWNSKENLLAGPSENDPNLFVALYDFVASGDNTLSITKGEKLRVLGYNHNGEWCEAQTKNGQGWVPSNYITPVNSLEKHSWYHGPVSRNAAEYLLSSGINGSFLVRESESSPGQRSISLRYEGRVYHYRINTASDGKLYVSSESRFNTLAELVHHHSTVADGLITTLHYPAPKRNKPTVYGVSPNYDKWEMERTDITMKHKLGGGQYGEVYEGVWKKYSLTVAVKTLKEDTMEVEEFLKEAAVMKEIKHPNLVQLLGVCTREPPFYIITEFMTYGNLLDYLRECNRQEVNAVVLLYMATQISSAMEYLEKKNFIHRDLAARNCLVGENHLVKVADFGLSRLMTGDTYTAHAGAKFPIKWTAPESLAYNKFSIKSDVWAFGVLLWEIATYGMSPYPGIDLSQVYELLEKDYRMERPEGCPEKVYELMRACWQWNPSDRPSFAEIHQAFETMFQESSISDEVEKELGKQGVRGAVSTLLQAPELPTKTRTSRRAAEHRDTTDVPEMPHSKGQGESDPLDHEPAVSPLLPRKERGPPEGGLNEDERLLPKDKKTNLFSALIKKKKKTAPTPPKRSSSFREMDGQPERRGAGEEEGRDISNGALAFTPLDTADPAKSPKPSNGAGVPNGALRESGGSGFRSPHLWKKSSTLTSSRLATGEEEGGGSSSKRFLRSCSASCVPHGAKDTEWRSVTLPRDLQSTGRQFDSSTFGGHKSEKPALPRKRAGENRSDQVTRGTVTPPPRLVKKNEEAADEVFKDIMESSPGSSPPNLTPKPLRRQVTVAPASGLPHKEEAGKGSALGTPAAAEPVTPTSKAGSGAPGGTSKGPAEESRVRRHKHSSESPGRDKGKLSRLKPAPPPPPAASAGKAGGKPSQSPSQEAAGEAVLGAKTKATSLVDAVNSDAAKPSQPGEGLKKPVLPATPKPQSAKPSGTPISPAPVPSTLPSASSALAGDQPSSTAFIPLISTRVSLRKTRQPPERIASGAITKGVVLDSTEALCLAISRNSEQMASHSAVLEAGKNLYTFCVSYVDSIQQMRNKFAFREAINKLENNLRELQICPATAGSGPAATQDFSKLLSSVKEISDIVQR
Chain of Ras and Rab interactor 1/Tyrosine-protein kinase ABL1 (Q13671 whole entry): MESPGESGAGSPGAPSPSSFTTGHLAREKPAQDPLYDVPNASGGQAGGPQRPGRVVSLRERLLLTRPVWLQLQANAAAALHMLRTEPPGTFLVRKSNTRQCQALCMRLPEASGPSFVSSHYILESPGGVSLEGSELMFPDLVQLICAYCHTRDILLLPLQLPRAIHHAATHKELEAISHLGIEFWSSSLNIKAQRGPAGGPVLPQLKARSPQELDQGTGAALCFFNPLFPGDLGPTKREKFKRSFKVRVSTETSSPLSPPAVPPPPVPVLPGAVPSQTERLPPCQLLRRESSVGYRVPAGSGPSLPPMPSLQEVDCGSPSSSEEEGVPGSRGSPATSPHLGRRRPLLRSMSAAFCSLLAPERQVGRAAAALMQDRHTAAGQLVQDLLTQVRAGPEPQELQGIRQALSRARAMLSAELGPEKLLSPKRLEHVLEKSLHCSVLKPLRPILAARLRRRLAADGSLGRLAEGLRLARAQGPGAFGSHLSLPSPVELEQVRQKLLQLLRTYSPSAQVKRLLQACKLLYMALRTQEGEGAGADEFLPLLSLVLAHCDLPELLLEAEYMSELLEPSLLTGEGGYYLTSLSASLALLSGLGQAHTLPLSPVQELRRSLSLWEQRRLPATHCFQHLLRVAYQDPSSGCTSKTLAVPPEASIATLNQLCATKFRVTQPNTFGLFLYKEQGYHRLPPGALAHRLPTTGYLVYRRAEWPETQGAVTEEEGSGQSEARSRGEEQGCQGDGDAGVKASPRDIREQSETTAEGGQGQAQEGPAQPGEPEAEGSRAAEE

Chain of Melanin-concentrating hormone receptor 1 (Q99705 whole entry): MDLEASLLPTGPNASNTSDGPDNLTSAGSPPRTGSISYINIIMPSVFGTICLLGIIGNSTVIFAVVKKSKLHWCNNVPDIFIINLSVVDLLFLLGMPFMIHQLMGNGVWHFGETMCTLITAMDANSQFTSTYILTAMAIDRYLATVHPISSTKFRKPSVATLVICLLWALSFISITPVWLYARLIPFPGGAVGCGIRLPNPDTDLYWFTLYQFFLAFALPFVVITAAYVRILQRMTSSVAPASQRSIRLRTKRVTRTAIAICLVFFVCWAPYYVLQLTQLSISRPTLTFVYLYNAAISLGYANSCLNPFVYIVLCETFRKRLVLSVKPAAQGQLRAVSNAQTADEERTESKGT
Chain of Aurora kinase B (Q96GD4 whole entry): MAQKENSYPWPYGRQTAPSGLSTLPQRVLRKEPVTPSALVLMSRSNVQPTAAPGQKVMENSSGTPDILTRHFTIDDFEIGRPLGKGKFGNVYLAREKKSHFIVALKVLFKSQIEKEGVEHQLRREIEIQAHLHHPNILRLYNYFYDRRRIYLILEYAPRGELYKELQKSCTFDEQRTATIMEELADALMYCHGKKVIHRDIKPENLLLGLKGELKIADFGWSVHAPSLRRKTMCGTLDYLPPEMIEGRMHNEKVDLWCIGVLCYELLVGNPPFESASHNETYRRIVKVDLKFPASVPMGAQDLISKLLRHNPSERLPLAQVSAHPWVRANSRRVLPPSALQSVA
Chain of Cytochrome P450 2C9 (P11712 whole entry): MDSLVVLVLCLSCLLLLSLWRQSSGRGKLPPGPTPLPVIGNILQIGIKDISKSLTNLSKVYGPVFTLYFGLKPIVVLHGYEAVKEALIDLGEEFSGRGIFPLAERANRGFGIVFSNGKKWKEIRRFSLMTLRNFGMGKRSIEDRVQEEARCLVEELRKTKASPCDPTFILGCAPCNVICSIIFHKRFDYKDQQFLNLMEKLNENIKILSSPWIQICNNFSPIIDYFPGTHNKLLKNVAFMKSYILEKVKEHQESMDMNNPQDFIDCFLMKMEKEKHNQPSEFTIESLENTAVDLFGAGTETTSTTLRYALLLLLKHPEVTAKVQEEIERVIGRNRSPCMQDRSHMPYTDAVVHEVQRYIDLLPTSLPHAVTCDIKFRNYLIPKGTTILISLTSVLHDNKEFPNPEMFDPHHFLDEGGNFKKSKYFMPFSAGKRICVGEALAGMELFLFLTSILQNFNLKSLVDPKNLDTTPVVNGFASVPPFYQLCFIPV

With `CC(C)c1ccc(O)c(NC(=O)c2nc[nH]n2)c1`, the AC50 in experiment [1] was 118 µM (active); at Cytochrome P450 2C19 it was 25.1 µM (inconclusive); on Cytochrome P450 2C9 it was 20 µM (inconclusive).
In the case of `Cc1cnn(Cc2cccc3ccccc23)c(=O)c1C(C#N)c1ccccc1` (stereo not drawn), the IC50 in [2] and in experiment [3] was 6.59 µM (active) throughout.
With `CCSC(=O)N(CC)C1CCCCC1` [CYCLOATE], the AC50 in experiment [4] is 0.794 µM (inconclusive).
For `CCOc1ccc(Oc2c(Cl)cnn(Cc3cccc4ccccc34)c2=S)cc1`, the IC50 in [2] and in experiment [3] was 1.51 µM (active) in each case.
In the case of `Nc1ccc(S(=O)(=O)O)c2cccc(O)c12`, the figures for the Ki on Aurora kinase B and on Aurora kinase A were 0.251 µM (active) and 0.0794 µM (active), respectively.
On to `O=C(COC(=O)CNS(=O)(=O)c1cccc(Br)c1)Nc1ccccc1Sc1ccccc1`, for which the IC50 is 8.42 µM (active) on Melanocortin receptor 4 [5] and > 64.6 µM (inactive) in experiment [6].
For `O=[N+]([O-])c1ccc(/C=N/c2cccc3ccccc23)s1`, the EC50 in experiment [7] was > 104 µM (inactive); in experiment [9], > 60 µM (not active); in experiment [10], 2.73 µM (active). In [8], the IC50 is > 50 µM (not active). Besides, in [11], the AC50 was 7.99 µM (active).
In the case of `CC(C)CN(C(=O)COC(=O)c1cnc(Cl)c(Cl)c1)c1c(N)n(Cc2ccccc2)c(=O)[nH]c1=O`, the results for the IC50 (at Melanocortin receptor 4 [5]; in experiment [6]) were 11.1 µM (inactive) and > 64.6 µM (inactive), respectively.
Consider `CC(SCC1CCC2CC1C2(C)C)C(N)=O` (stereo not drawn), for which the Ki in experiment [12] is 100 µM (active).
For `Cn1cccc1/C=C(/C#N)C(=O)Nc1cc(Cl)ccc1N1CCOCC1`, the IC50 in [13] and in experiment [14] was > 99 µM (inactive) each time.
For the molecule `Cc1cc(C)nc(Nc2nc(C(N)Cc3ccc(C(F)(F)F)cc3)cs2)n1` (stereo not drawn), the EC50 at Melanocortin receptor 4 [15] is > 89.2 µM (inactive).
As for `c1ccc(-c2nc(NCc3cccnc3)c3ccccc3n2)cc1`, the figures for the IC50 in experiment [16] and in [17] were 25.1 µM (inactive) and 8.37 µM (active), respectively. Besides, the values for the AC50 on Cytochrome P450 2D6 and on Cytochrome P450 3A4 were 17.8 µM (inconclusive) and 1 µM (inconclusive), respectively.
For `CCC(c1nc2ccccc2c(=O)n1CCCn1ccnc1)N1C(=O)c2ccccc2C1=O` (stereo not drawn), the IC50 in [18] was 35.2 µM (inactive).
